Test results from ChEMBL document CHEMBL1151414, “Plant anticancer agents. XXIII. 6 alpha-senecioyloxychaparrin, a new antileukemic quassinoid from Simaba multiflora” (1983).
Values after ≈ are worked out from the molar mass of the structure shown.

Tests used:
Format in all cases: functional
P388 [1] = assay: In vivo antitumor activity against mouse P388 cells at 0.38 mg/kg relative to control
P388 [2] = assay: In vivo antitumor activity against mouse P388 cells at 1.5 mg/kg relative to control
P388 [3] = assay: In vivo antitumor activity against mouse P388 cells at 3.0 mg/kg relative to control
P388 [4] = assay: In vivo antitumor activity against mouse P388 cells at 0.75 mg/kg relative to control
KB = assay: Cytotoxicity against human KB cells by NCI method; details: read-out: ED50 (the source's name)
P388 [5] = assay: In vivo antitumor activity against mouse P388 cells at 0.63 mg/kg relative to control
P388 [6] = assay: In vivo antitumor activity against mouse P388 cells at 0.31 mg/kg relative to control
P388 [7] = assay: In vivo antitumor activity against mouse P388 cells at 2.5 mg/kg relative to control
P388 [8] = assay: In vivo antitumor activity against mouse P388 cells at 1.25 mg/kg relative to control

Molecule CC(C)=CC(=O)O[C@@H]1[C@H]2C(C)=C[C@H](O)[C@H](O)[C@]2(C)[C@H]2[C@]3(O)OC[C@@]24[C@@H]1OC(=O)C[C@H]4[C@@H](C)[C@H]3O has a T/C (P388 [1]) of 142%, a T/C (P388 [2]) of 133% and a T/C (P388 [3]) of 133%. For the same molecule, the T/C (P388 [4]) was 160% and the EC50 (KB) was 3 ng/mL (≈ 6.27 nM).
CC(C)=CC(=O)O[C@@H]1[C@H]2C(C)=CC(=O)[C@H](O)[C@]2(C)[C@H]2[C@]3(O)OC[C@@]24[C@@H]1OC(=O)C[C@H]4[C@@H](C)[C@H]3O gave a T/C (P388 [5]) of 176%, a T/C (P388 [6]) of 145% and a T/C (P388 [7]) of 136%. For the same molecule, the T/C (P388 [8]) was 133% and the EC50 (KB) was 3 ng/mL (≈ 6.3 nM).
CC1=CC(=O)[C@@H](O)[C@]2(C)[C@H]3[C@@]4(O)OC[C@@]35[C@@H](C[C@@H]12)OC(=O)C[C@H]5[C@@H](C)[C@H]4O [CHAPARRINONE] showed an EC50 (KB) of 25 ng/mL (≈ 66.1 nM).
